Reference: patent US20250090510A1, “eIF4G1-eIF1 INHIBITORS AND USE THEREOF” (YEDA RESEARCH AND DEVELOPMENT CO. LTD., priority 2022, published 2025)

How the values were obtained:
HEK293T cells [1] = experiment: Polysome profile by sucrose gradient sedimentation; type: cell-based, human; conditions: i14G1-12 10 μM, 3 h; for 80S monoribosomes in polysome profile: i14G1-10 20 μM
Method: (§1) FIGS. 3A-F: i14G1-10 and i14G1-12 inhibit mRNA translation and sensitize cell survival of eIF4G1 and eIF1 depleted cells. (3A) In-vitro translation using rabbit reticulocyte lysate which was pre-incubated with different concentrations of i14G1-10 or i14G1-12 for 10 minutes followed by the addition of capped firefly luciferase mRNA. After 90 minutes at 30° C., the luminescence signal was measured and the IC50 was calculated. The data represents mean±SEM of 6 independent repeats. (3B) HEK293T cells were treated with DMSO (vehicle control), and sub-cytotoxic concentrations of i14G1-10 (20 μM) and i14G1-12 (10 μM) for 3h. Cell lysates were then subjected to sucrose gradient sedimentation to obtain polysome profiles. (3C) HEK293T cells were treated with the indicated concentrations of i14G1-10 and i14G-12 for 3 h, followed by the addition of puromycin (10 μg/ml) for 5 minutes, after which cells were lysed and analyzed by western blot using an anti-puromycin antibody and anti-GAPDH antibody that serves as a loading control. The graph represents the mean±SEM chemiluminescence signal intensity of puromycin labeling normalized to GAPDH of 3 independent experiments. The calculated IC-50 is shown. (3D) HEK293T cells were transfected with either control or eIF4G1 siRNA in the absence or presence of eIF4G1 expression plasmid. As the eIF4G1 siRNA pool is directed against the 3′UTR, which is absent from the eIF4G1 expression plasmid, the exogenous eIF4G1 is resistant to the siRNA. […] The calculated IC-50 is shown. (3E) The graphs represent cell viability of the indicated cell lines in the presence of increasing concentrations of i14G1-10 and i14G1, analyzed by Luminescent Cell Viability Assay. […]
Polysome profile and real-time PCR. […] Gradients were fractionated with continuous absorbance measurement at 254 nm using ISCO absorbance detector UA-6. Fractions were pooled according to their absorbance into Free, Light, and Heavy ribosomal fractions. […]

HEK293T cells [2] = experiment: Puromycin labeling (puromycin-incorporation assay); type: cell-based; conditions: Homo sapiens, HEK-293T; 3 h treatment, puromycin 10 μg/ml 5 minutes; read-out: IC-50, nascent polypeptide puromycin labeling
Method: as §1, with “The graph represents the mean±SEM chemiluminescence signal intensity of puromycin labeling normalized to GAPDH of 3 independent experiments.” left out, “shown.” for “shown. (3D) HEK293T cells were transfected with either control or eIF4G1 siRNA in the absence or presence of eIF4G1 expression plasmid. As the eIF4G1 siRNA pool is directed against the 3′UTR, which is absent from the eIF4G1 expression plasmid, the exogenous eIF4G1 is resistant to the siRNA.”

SMILES | 80S monoribosomes in polysome profile (HEK293T cells [1]) | heavy polysomal fractions in polysome profile (HEK293T cells [1]) | IC50 (HEK293T cells [2]) [µM]
Cn1ccnc1S/C(=C/C=C(C#N)C#N)c1ccc(Cl)cc1 [i14G1-12] | increase in 80S monoribosomes | substantial decrease in the heavy polysomal fractions | 4.96
O=C(/C=C/Sc1ccc(C(F)(F)F)cn1)c1ccccc1 [i14G1-10] | increase in 80S monoribosomes | – | 20.4
